From ChEMBL document CHEMBL5212743, “Selectivity Literature for EUbOPEN Chemogenomics Library wave 3” (2023)
Values belong to the compound of their own block, whether it stands above or below them.

Key:
[1] = biological target: Cyclin-dependent kinase 11A (Homo sapiens, UniProt Q9UQ88); assay: Selectivity interaction (ScanMAX (DiscoverX)) EUB0000005b CDK11A
[2] = biological target: T1, Mitogen-activated protein kinase 14 (Homo sapiens, UniProt Q16539); assay: Selectivity interaction (KinomeScan (DiscoverX)) EUB0000713a MAPK14; conditions: at 100 nM
T1 sequence (Q16539 whole entry): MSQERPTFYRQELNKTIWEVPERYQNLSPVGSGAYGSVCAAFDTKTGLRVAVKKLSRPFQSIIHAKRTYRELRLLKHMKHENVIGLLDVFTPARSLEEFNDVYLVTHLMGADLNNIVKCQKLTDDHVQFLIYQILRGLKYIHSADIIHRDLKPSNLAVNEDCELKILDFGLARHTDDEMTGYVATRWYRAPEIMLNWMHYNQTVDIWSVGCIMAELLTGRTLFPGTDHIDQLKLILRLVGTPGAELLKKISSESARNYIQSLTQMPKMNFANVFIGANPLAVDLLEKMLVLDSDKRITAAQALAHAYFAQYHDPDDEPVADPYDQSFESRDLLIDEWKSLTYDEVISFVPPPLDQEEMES

[3] = biological target: Serine/threonine-protein kinase PAK 3 (Homo sapiens, UniProt O75914); assay: Selectivity interaction (KinomeScan (DiscoverX)) EUB0000713a PAK3; conditions: at 100 nM
[4] = biological target: Serine/threonine-protein kinase 10 (Homo sapiens) (UniProt O94804); assay: Selectivity interaction (KinomeScan (DiscoverX)) EUB0000713a STK10; conditions: at 100 nM
Serine/threonine-protein kinase 10 (Homo sapiens), sequence (O94804 whole entry, looked up): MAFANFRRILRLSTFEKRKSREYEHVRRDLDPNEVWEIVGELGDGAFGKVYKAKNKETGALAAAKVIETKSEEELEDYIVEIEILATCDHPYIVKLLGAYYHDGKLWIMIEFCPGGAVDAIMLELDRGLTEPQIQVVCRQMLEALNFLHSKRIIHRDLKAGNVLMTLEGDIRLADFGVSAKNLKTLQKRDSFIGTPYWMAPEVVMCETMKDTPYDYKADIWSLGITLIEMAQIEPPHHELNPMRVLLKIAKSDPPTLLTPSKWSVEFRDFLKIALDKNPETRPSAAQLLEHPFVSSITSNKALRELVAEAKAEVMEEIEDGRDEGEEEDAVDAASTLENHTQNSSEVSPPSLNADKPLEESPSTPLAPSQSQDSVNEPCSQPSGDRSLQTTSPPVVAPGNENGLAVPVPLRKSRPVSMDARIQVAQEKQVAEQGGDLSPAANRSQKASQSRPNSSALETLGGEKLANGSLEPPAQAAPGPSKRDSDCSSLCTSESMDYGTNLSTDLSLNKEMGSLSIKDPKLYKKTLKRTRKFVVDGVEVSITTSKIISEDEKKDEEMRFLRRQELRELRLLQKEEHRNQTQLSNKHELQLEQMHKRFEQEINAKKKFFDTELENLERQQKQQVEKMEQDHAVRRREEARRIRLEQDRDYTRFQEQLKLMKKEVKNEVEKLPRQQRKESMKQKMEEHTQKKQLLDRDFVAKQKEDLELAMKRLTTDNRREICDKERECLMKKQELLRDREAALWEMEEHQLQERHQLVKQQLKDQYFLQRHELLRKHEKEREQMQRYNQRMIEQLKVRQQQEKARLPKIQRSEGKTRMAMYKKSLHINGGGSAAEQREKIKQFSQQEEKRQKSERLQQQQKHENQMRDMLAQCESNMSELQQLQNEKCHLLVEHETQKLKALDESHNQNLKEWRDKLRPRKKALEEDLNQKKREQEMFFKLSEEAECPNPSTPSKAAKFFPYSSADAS

[5] = biological target: T2, Gamma-aminobutyric acid receptor subunit alpha-1 (Homo sapiens, UniProt P14867); assay: Selectivity interaction (GPCR panel (PDSP screen)) EUB0000713a GABRA1
T2 sequence (P14867 whole entry): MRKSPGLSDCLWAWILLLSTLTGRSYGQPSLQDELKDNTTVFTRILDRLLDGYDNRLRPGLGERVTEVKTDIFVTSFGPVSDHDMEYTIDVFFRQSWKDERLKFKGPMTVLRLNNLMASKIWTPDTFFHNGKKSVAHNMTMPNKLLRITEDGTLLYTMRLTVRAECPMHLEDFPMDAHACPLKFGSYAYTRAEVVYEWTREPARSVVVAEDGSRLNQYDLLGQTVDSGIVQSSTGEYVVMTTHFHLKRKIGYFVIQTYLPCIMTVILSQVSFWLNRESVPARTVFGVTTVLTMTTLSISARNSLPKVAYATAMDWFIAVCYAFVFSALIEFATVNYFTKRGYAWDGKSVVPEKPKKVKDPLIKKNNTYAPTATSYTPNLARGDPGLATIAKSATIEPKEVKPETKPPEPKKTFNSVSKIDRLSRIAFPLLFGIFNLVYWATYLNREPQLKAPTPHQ

[6] = biological target: T3, Ephrin type-B receptor 6 (Homo sapiens) (UniProt O15197); assay: Selectivity interaction (KinomeScan (DiscoverX)) EUB0000713a EPHB6; conditions: at 100 nM
T3 sequence (whole entry): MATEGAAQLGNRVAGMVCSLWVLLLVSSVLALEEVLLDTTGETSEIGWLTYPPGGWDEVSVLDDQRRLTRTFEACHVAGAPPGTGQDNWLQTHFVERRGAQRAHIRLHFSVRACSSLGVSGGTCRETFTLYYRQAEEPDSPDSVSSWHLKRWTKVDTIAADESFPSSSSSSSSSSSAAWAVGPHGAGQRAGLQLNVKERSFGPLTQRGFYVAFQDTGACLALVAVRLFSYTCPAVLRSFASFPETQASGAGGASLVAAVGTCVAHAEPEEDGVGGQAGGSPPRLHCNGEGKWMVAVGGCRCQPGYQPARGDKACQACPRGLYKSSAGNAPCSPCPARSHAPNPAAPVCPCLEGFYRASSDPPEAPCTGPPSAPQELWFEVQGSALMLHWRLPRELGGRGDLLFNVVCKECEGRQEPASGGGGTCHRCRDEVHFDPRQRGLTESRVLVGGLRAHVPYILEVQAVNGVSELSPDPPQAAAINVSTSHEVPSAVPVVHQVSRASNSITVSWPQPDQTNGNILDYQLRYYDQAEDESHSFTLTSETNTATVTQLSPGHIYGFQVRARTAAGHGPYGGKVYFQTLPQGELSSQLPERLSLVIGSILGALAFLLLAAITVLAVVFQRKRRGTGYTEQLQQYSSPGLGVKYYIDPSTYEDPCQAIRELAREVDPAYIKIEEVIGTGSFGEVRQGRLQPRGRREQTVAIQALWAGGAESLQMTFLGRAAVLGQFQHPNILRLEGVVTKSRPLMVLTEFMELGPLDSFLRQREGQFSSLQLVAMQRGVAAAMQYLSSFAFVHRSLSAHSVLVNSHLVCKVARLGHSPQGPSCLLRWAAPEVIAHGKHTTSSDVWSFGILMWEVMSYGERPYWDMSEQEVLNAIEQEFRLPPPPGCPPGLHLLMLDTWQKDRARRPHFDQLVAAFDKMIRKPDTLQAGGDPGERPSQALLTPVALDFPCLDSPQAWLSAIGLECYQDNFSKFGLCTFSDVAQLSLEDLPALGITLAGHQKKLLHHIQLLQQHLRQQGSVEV

[7] = biological target: Tyrosine-protein kinase Lyn (Homo sapiens, UniProt P07948); assay: Selectivity interaction (NanoBRET assay (HEK293T cells)) EUB0000713a LYN
Tyrosine-protein kinase Lyn, sequence (P07948 whole entry): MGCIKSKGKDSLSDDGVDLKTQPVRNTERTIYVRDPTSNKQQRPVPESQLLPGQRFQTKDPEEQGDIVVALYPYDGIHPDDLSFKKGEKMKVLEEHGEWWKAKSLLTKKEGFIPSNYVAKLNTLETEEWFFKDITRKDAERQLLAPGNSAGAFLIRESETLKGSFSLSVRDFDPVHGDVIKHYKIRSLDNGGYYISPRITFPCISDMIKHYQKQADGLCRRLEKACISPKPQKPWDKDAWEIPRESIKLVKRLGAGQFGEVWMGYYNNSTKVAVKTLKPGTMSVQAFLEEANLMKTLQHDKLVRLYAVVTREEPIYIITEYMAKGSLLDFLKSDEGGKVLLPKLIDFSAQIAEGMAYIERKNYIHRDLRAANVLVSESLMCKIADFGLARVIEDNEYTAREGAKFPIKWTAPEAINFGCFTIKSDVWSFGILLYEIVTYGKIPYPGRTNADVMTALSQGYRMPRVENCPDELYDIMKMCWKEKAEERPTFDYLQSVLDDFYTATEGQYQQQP

[8] = biological target: Cyclin-dependent kinase 2 (Homo sapiens, UniProt P24941); assay: Selectivity interaction (Enzymatic assay) EUB0000624a CDK2
[9] = biological target: T1, Mitogen-activated protein kinase 14; assay: Selectivity interaction (Enzymatic assay) EUB0000624a MAPK14
[10] = biological target: Inhibitor of nuclear factor kappa-B kinase subunit alpha (Homo sapiens, UniProt O15111); assay: Selectivity interaction (Enzymatic assay) EUB0000624a CHUK
Inhibitor of nuclear factor kappa-B kinase subunit alpha, sequence (O15111 whole entry): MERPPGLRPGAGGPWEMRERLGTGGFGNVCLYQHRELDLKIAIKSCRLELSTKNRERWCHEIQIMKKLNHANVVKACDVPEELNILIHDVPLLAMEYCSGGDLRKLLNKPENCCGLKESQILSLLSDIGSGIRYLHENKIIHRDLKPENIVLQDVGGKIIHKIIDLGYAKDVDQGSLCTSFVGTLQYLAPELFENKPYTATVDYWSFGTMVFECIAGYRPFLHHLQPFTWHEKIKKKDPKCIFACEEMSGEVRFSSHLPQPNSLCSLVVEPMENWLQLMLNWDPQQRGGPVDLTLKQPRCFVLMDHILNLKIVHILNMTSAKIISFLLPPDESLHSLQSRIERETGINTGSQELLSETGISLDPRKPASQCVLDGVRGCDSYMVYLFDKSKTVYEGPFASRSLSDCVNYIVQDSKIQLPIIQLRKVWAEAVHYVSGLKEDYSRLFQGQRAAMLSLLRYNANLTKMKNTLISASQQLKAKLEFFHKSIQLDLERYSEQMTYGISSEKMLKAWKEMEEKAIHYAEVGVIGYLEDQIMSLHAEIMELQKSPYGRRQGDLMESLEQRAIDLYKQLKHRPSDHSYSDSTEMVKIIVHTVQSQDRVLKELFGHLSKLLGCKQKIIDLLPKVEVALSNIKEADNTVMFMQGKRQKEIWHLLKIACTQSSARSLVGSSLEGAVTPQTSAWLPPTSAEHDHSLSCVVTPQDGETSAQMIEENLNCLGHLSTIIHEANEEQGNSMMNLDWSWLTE

[11] = biological target: Inhibitor of nuclear factor kappa-B kinase subunit beta (Homo sapiens, UniProt O14920); assay: Selectivity interaction (Enzymatic assay) EUB0000624a IKBKB
[12] = biological target: Serine/threonine-protein kinase PLK3 (Homo sapiens, UniProt Q9H4B4); assay: Selectivity interaction (Enzymatic assay) EUB0000624a PLK3
Serine/threonine-protein kinase PLK3, sequence (Q9H4B4 whole entry): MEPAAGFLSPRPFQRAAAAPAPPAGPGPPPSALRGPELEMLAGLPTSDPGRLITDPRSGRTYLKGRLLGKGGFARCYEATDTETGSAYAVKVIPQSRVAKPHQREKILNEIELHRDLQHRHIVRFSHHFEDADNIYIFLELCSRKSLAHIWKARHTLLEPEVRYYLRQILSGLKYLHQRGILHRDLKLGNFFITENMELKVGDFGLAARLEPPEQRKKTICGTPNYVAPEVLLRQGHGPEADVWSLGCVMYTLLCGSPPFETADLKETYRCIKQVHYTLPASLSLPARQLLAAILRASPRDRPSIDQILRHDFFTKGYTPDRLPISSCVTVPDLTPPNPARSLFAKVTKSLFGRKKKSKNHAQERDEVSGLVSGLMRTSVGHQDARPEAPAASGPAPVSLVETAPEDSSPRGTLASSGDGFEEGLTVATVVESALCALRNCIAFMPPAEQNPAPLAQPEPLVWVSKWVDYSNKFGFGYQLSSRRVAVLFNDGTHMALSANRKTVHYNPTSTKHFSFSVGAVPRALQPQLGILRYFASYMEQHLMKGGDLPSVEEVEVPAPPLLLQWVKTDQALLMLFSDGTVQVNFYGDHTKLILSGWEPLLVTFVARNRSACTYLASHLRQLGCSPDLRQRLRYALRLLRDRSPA

[13] = biological target: Insulin-like growth factor 1 receptor (Homo sapiens, UniProt P08069); assay: Selectivity interaction (Enzymatic assay) EUB0000624a IGF1R
[14] = biological target: cAMP-dependent protein kinase catalytic subunit alpha (Homo sapiens, UniProt P17612); assay: Selectivity interaction (Enzymatic assay) EUB0000624a PRKACA
[15] = biological target: Platelet-derived growth factor receptor alpha (Homo sapiens, UniProt P16234); conditions: at 10 µM
[16] = biological target: Vascular endothelial growth factor receptor 2 (Homo sapiens, UniProt P35968); conditions: at 10 µM
[17] = biological target: T4, Casein kinase I isoform delta (Homo sapiens, UniProt P48730); assay: Selectivity interaction (KinomeScan (DiscoverX)) EUB0000718a CSNK1D; conditions: at 1 µM
Target sequence in this assay (P48730 whole entry, looked up, canonical isoform): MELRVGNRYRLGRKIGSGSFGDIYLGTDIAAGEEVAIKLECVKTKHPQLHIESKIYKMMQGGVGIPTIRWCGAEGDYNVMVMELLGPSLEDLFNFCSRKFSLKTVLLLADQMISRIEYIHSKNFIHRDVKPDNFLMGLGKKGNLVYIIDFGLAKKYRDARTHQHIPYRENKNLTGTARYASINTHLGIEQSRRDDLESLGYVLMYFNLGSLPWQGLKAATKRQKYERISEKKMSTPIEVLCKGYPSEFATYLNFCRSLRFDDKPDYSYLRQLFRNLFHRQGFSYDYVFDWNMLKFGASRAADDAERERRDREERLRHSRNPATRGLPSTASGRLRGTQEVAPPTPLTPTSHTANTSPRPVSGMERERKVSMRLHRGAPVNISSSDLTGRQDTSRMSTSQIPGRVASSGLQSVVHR

[18] = biological target: T4, Casein kinase I isoform delta; assay: Selectivity interaction (NanoBRET assay (HEK293T cells)) EUB0000718a CSNK1D
Target sequence in this assay (P48730 whole entry, canonical isoform): as the sequence (P48730 whole entry, looked up, canonical isoform) above

[19] = biological target: T5, Casein kinase I isoform epsilon (Homo sapiens, UniProt P49674); assay: Selectivity interaction (KinomeScan (DiscoverX)) EUB0000718a CSNK1E; conditions: at 1 µM
[20] = biological target: T5, Casein kinase I isoform epsilon; assay: Selectivity interaction (NanoBRET assay (HEK293T cells)) EUB0000718a CSNK1E
[21] = biological target: T6, Casein kinase I isoform gamma-3 (Homo sapiens, UniProt Q9Y6M4); assay: Selectivity interaction (KinomeScan (DiscoverX)) EUB0000718a CSNK1G3; conditions: at 1 µM
Target sequence in this assay (Q9Y6M4 whole entry, looked up, canonical isoform): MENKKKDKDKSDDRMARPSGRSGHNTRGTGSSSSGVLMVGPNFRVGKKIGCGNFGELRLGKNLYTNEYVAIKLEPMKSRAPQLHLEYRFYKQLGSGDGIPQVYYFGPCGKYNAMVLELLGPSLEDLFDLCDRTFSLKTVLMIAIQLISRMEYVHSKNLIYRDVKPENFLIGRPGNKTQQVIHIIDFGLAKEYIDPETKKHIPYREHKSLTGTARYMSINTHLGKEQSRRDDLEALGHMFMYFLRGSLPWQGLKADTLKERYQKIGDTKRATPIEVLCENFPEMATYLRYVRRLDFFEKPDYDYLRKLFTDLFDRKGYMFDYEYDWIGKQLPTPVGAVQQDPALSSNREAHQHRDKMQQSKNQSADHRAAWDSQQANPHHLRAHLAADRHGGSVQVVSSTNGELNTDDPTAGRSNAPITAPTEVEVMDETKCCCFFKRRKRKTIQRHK

[22] = biological target: T6, Casein kinase I isoform gamma-3; assay: Selectivity interaction (NanoBRET assay (HEK293T cells)) EUB0000718a CSNK1G3
[23] = biological target: T7, Mitogen-activated protein kinase 12 (Homo sapiens) (UniProt P53778); assay: Selectivity interaction (KinomeScan (DiscoverX)) EUB0000718a MAPK12; conditions: at 1 µM
T7 sequence (whole entry): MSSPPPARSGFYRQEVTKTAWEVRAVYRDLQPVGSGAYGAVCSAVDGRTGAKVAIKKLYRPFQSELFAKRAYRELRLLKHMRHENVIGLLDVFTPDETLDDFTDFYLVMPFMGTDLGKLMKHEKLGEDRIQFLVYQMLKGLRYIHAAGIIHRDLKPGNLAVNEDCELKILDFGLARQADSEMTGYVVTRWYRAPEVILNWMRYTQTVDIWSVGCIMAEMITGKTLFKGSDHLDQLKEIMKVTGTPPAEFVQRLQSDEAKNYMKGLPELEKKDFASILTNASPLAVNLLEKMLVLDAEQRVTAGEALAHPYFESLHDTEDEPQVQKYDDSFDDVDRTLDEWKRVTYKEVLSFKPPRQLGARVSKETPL

Aurora kinase B = Aurora kinase B (Homo sapiens, UniProt Q96GD4); assay: Selectivity interaction (KinomeScan (DiscoverX)) EUB0000718a AURKB; conditions: at 1 µM

Cyclin-dependent kinase 11A, sequence (Q9UQ88 whole entry): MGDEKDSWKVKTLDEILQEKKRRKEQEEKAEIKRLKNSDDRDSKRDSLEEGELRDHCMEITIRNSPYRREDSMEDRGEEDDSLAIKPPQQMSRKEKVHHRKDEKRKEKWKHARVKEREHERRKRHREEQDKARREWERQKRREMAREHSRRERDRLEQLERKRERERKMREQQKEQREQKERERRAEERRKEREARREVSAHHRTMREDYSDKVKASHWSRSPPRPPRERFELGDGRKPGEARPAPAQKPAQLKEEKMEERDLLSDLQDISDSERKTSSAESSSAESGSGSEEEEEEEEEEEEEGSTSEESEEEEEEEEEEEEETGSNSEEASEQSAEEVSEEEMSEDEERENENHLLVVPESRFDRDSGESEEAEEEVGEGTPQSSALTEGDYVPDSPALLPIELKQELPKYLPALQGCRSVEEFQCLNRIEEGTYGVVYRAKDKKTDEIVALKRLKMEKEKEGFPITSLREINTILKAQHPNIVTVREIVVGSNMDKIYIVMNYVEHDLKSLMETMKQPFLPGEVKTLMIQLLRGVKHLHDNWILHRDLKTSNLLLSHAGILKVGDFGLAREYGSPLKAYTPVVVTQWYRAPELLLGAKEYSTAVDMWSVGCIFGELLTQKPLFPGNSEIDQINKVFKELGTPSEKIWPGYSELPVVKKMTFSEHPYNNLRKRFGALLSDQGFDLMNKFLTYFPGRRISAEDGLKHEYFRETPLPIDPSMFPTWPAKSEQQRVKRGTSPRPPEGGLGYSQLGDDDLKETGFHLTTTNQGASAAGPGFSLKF

Kd [1]: 370 nM
SMILES: Cc1cn(-c2cc(NC(=O)c3ccc4c(c3)CN(c3cncnc3)C[C@@H]4C)cc(C(F)(F)F)c2)cn1

% of control [2]: 0% | % of control [3]: 26.1% | % of control [4]: 1.8% | Ki [5]: 217 nM | % of control [6]: 3% | EC50 [7]: 7400 nM
SMILES: Cc1cc(C)c(-n2ccn3nc(-c4cccnc4)cc23)cc1NC(=O)c1cc(C#N)cc(S(F)(F)(F)(F)F)c1 [BAY-826]

IC50 [8]: > 2000 nM | IC50 [9]: > 2000 nM | IC50 [10]: > 2000 nM | IC50 [11]: > 2000 nM | IC50 [12]: > 2000 nM | IC50 [13]: > 2000 nM | IC50 [14]: 550 nM | % of control [15]: 0.2% | % of control [16]: 0.2%
SMILES: CCOc1ccn(-c2ccc(F)cc2)c(=O)c1C(=O)Nc1ccc(Oc2ccnc(N)c2Cl)c(F)c1 [BMS-777607]

% of control [17]: 5.8% | IC50 [18]: > 20000 nM | % of control [19]: 0.75% | IC50 [20]: > 20000 nM | % of control [21]: 35% | IC50 [22]: > 20000 nM | % of control [23]: 14% | % of control (Aurora kinase B): 22%
SMILES: O=C(NCCN1CCOCC1)c1ccc2c(c1)C(=O)c1ccc(Nc3ccc(F)c(NC(=O)c4ccccc4)c3)cc1CC2 [FS-694]
